Consider 97 molecules from PubChem BioAssay AID2423 (Broad Institute, 2010).

Inconclusive results are not listed. Calls of active or inactive are those of the source. The rule behind the calls is not given here.

This test concerns C. albicans CaCi-8 + fluconazole, Alamar Blue growth, 48 h. As to the kind of experiment: resistant C. albicans growth inhibition with fluconazole, dose response, CaCi-8 strain, Alamar Blue fluorescence (AID 2423). On the technique in general: The colour change of resazurin is a common sign of viable cells or microbes.

Regarding `Cc1nc2ccccc2cc1OCc1ccccc1`, the EC50 (in general, the concentration that produces a half-maximal response) was 1620 nM.
The figure for `Cc1cc(C)c2nc(NNC(=O)c3cc(-c4cccs4)nc4ccccc34)sc2c1` is 804 nM; for `Nc1ncc(Br)cc1S(=O)(=O)Nc1cc(C(F)(F)F)cc(C(F)(F)F)c1` it is 918 nM.
Turning to `Cc1cc(C)c(S(=O)(=O)Nc2cccc(-n3cnnn3)c2)c(C)c1`, the EC50 is 13000 nM.
The same measure for `O=C(Nc1nc(-c2ccccn2)cs1)c1cc2ccccc2o1`: 903 nM; for `Nc1nc(-c2ccccc2)c(N=Nc2ccccc2Cl)s1`: 6250 nM.
As to `O=c1c2ccccc2nc(N/N=C/c2c(O)ccc3ccccc23)n1O`, the EC50 was 238 nM.
The figure for `Cc1cc([N+](=O)[O-])c2ccccc2[n+]1[O-]` is 195 nM; for `C=CCNC(=S)Nc1sc2c(c1C(=O)OCC)CC(C)(CC)OC2` (configuration not stated) it is 1380 nM; for `O=S(=O)(c1ccc(Cl)cc1)N1CCN(Cc2ccc(O)c3ncccc23)CC1` it is 2940 nM.
Regarding `Cc1ccc(SCCC(=O)N/N=C/c2ccccc2O)cc1`, the 50% effective concentration (EC50) was 14000 nM.
Turning to `NCC(c1ccc(Cl)cc1Cl)c1c[nH]c2ccccc12` (configuration not stated), the EC50 was > 16000 nM (inactive).
The figure for `NNC(=S)Nc1cccc(Cl)c1` is 8450 nM; for `Cc1ccc2nc(N3C(=O)C(O)=C(C(=O)c4ccco4)C3c3ccc(C)o3)sc2c1` (configuration not stated) it is 131 nM.
`CS/C(=N\S(=O)(=O)c1cccs1)Nc1ccc(Br)cc1F`: the EC50 was 801 nM.
Turning to `CCOc1ccc2nc(N=NC3=C(O)CC(C)(C)CC3=O)sc2c1`, the EC50 was > 16000 nM (inactive).
The same measure for `C=CCN1C(=O)N/C(=C/c2ccc(N3CCOCC3)o2)C1=O`: 796 nM; for `O=C(NNC(=S)NC(=O)c1ccc(Br)cc1)c1ccc([N+](=O)[O-])cc1`: 416 nM; for `CCn1cc(C(=O)OCC(=O)Nc2cccc(Cl)c2Cl)c(=O)c2ccc(C)nc21`: > 15000 nM (inactive).
Regarding `Cc1cc(OCC(=O)NNC(=S)NC(=O)c2cccs2)ccc1Cl`, the EC50 was 1660 nM.
The figure for `O=C(NC(c1ccc(Cl)cc1)c1cc(Cl)c2cccnc2c1O)c1cccnc1` (configuration not stated) is 329 nM; for `Brc1ccc(CSc2nnc(-c3cnccn3)n2Cc2ccco2)cc1` it is 2010 nM; for `CCn1c(SCC(=O)c2ccc(O)c(O)c2)nnc1-c1ccccc1OC` it is > 16000 nM (inactive).
Consider `O=Nc1c(O)n(Cc2ccc(Cl)c(Cl)c2)c2ccccc12`, for which the EC50 is 5900 nM.
The figure for `Cc1ccc2nsnc2c1NC(=O)COc1ccccc1F` is > 15000 nM (inactive); for `O=c1c2ccccc2nc(/C=C/c2ccc([N+](=O)[O-])o2)n1CCCO` it is 153 nM.
On to `NC(=O)c1c(NC(=O)c2ccco2)sc2c1CCC2`, for which the EC50 was 1060 nM.
Regarding `O=Nc1c(O)n(Cc2cccc(Cl)c2)c2ccccc12`, the EC50 is 1200 nM.
As for `Cc1ccc2nc(/C(C#N)=C\c3ccc(OC(=O)c4cccs4)cc3)[nH]c2c1`, the EC50 is 528 nM.
`Cc1cc(C(=O)Nc2ccccc2C(=O)O)ccc1NC(=O)COc1cccc([N+](=O)[O-])c1`: the EC50 was 5270 nM.
For the molecule `Cc1ccccc1-c1ccnc2[nH]n(-c3ccccc3)c(=O)c12`, the EC50 is 14500 nM.
For the molecule `Oc1c(Br)cc(Br)cc1Oc1ccc(Br)cc1Br`, the EC50 was 1760 nM.
As to `CCN(c1ccccc1)S(=O)(=O)c1ccc(C(=O)Nc2nnc(C3CC3)o2)cc1`, the EC50 is 2220 nM.
Take `COCCn1c(=O)[nH]c(=O)c2cc(C(=O)c3cc(Cl)ccc3O)cnc21`: the EC50 was 1280 nM.
On to `CN(C)C(=O)c1cn(-c2ccccc2)nc1-c1cccs1`, for which the EC50 was > 16000 nM (inactive).
On to `O=S(=O)(O)c1cccc2c(N=Nc3ccc(O)c4ncccc34)cccc12`, for which the EC50 is > 16000 nM (inactive).
The same measure for `CN1CCN(C(c2cccnc2)c2ccc3cccnc3c2O)CC1` (configuration not stated): > 16000 nM (inactive).
`CCn1c(=O)n(CC(=O)N2CCN(c3ccccc3F)CC2)c(=O)c2ccccc21`: the EC50 was > 16000 nM (inactive).
Regarding `Nc1ncnc(Sc2ncccn2)c1[N+](=O)[O-]`, the EC50 was 484 nM.
As to `CCNC(=S)NNC(=O)c1cc(-c2ccccc2C)nc2ccccc12`, the EC50 was 1410 nM.
As to `CC(=O)Nc1ccc(NC(=O)CSc2ccc3nnc(CCNS(=O)(=O)c4ccc(C)cc4)n3n2)cc1`, the EC50 was > 16000 nM (inactive).
Regarding `N/C(=N\OC(=O)N1c2ccccc2Sc2ccccc21)c1ccccc1`, the half-maximal effective concentration (EC50) was 193 nM.
With `NC(=S)n1[nH]c(-c2ccc([N+](=O)[O-])cc2)c(N=Nc2cccc([N+](=O)[O-])c2)c1=O`, the EC50 was 2830 nM.
As to `COc1cc(C(=O)Oc2c(CN3CCOCC3)cc(Cl)c3cccnc23)cc(OC)c1OC`, the EC50 is 2740 nM.
The figure for `Cc1ccccc1Nc1ncccc1C(=O)N1CCOCC1` is > 16000 nM (inactive).
Regarding `C=CCn1c(N)nc2ccccc21`, the EC50 is 2720 nM.
For the molecule `NC(=O)c1ccc(Nc2nnc(-c3ccc(O)cc3)c3ccccc23)cc1`, the EC50 is 7930 nM.
As for `Oc1c(Cl)cc(Cl)c(Cl)c1Cc1c(O)c(Cl)cc(Cl)c1Cl`, the EC50 was 1720 nM.
The figure for `CCOC(=O)c1c(-c2ccccc2Cl)cn2ccccc12` is 2120 nM; for `CS/C(=N\S(=O)(=O)c1cccs1)Nc1ccc(Cl)cc1` it is 1200 nM; for `CN1CCc2cc3c(c4c2C1Cc1ccccc1-4)OCO3` (configuration not stated) it is > 15000 nM (inactive).
In the case of `Cc1ccc(NC(=O)CNC(=O)c2ccc(Oc3ccccc3)cc2)nc1`, the EC50 was 440 nM.
`CCCc1ccc(Oc2cn[nH]c2-c2ccc(O)cc2O)cc1`: the EC50 was 8050 nM.
Take `Cc1ccc(NC(=O)CSc2nnc([C@@H](N)Cc3c[nH]c4ccccc34)o2)c(C)c1`: the EC50 is > 15000 nM (inactive).
For `C/C(=N\NC(=O)c1cc2ccccc2cc1O)c1ccccn1`, the EC50 is 1450 nM.
In the case of `O=C(/C=C/c1ccc(F)cc1)N1CCN(c2ccccn2)CC1`, the EC50 was 800 nM.
Consider `CCOc1ccc(-n2c(O)c(/C=N/Nc3nc(C)cc(C)n3)c3ccccc3c2=O)cc1`, for which the EC50 is > 15000 nM (inactive).
With `O=C(COc1ccccc1)Nc1nnc(-c2ccc3c(c2)CCCC3)o1`, the EC50 is 727 nM.
For the molecule `CCCCCCCCCCCCCCCC[n+]1cccc(C(=O)N(CC)CC)c1`, the EC50 is 6230 nM.
`CCOC(=O)N1CCN(Cc2ccc(O)c3ncccc23)CC1`: the EC50 was 12500 nM.
`CC(C)C(=O)NC(c1ccco1)c1ccc2cccnc2c1O` (configuration not stated): the EC50 was 1940 nM.
The same measure for `O=C1CS/C(=N\C(=O)N2c3ccccc3Sc3ccccc32)N1`: 1090 nM; for `CN(C)c1ccc(-c2n(C)c3ccccc3[n+]2C)cc1`: 3930 nM.
For the molecule `CCOC(=O)C1CCN(Cc2ccc(O)c3ncccc23)CC1`, the EC50 is > 15000 nM (inactive).
Consider `Cc1onc(-c2c(Cl)cccc2Cl)c1C(=O)N/N=C(\N)COc1ccc(Cl)cc1`, for which the EC50 was 1700 nM.
For the molecule `O=C(Nc1nnc(-c2ccc3c(c2)CCCC3)o1)c1ccc(Cl)cc1Cl`, the EC50 is below 120 nM.
For the molecule `O=C(Nc1cc(F)cc(F)c1)c1ccc(NCCCN2CCCCCC2)c([N+](=O)[O-])c1`, the EC50 is > 16000 nM (inactive).
In the case of `Cn1c(O)c(/C=N/NC(=O)c2cc3ccccc3cc2O)c2ccccc21`, the EC50 was 5350 nM.
Turning to `Cc1ccc(NCc2ccc(O)c3ncccc23)cc1`, the 50% effective concentration (EC50) is 16000 nM.
`O=C(Nc1ccc(OCc2ccccc2Cl)cc1)c1cccnc1`: the EC50 is 3710 nM.
As to `O=S1(=O)N=C(Nc2ccc(N3CCOCC3)cc2)c2ccccc21`, the EC50 is > 16000 nM (inactive).
Regarding `O=[N+]([O-])c1ccc(S(=O)(=O)Nc2nc3ccccc3nc2Nc2ccccc2)cc1`, the EC50 is 1440 nM.
Regarding `COc1ccc(C(NC(=O)C(C)C)c2ccc3cccnc3c2O)cc1` (configuration not stated), the EC50 was 802 nM.
The figure for `Cc1cccc(NC(=S)NNC(=O)c2csc(C(C)C)c2)c1` is 4240 nM; for `O=C(/C=C/c1cc(Br)ccc1O)c1ccco1` it is 458 nM; for `CCCCc1c(O)nc(SCC(=O)Nc2cccc3ccccc23)n(-c2ccccc2OC)c1=O` it is 7770 nM.
The figure for `CCOC(=O)Cc1csc(NC(=O)CSc2nnc(-c3ccncc3)o2)n1` is below 120 nM; for `O=C(OCn1ncc(Cl)c(Cl)c1=O)c1cccc(C(F)(F)F)c1` it is 2460 nM.
Regarding `CC(C)N1CCc2c(sc(NC(=O)c3nc4ccccc4s3)c2C(N)=O)C1`, the 50% effective concentration (EC50) was 239 nM.
For `CCn1c(C)nc2cc(C(=O)N/N=C/c3cccc(OC)c3O)ccc21`, the EC50 is > 16000 nM (inactive).
The figure for `CCCc1cc(=O)[nH]c(SCC(=O)Nc2ccc(Br)cc2Br)n1` is 2590 nM; for `Cc1nn(-c2ccccc2)c(Cl)c1/C=C/C(=O)c1ccc(O)cc1` it is 1640 nM; for `CCN(CC)c1ccc(/C=N/NC(=O)c2nnn(-c3nonc3N)c2C(C)C)c(O)c1` it is 472 nM.
As for `CN(C)c1ccc(/C=C/C=C/c2sc3ccccc3[n+]2C)cc1`, the EC50 is 1740 nM.
For `COC(=O)C1CCN(Cc2c(C(=O)N3C[C@@H](C)O[C@@H](C)C3)nc3ccc(Cl)cn23)CC1`, the EC50 was > 15000 nM (inactive).
Take `Cc1onc(-c2ccccc2)c1C(=O)N/N=C(\N)COc1ccc(Cl)cc1`: the concentration for a half-maximal effect (EC50) is 14200 nM.
`CCOc1ccccc1NC(=O)c1cc(S(=O)(=O)N2CCC3(CC2)OCCO3)ccc1F`: the EC50 is > 16000 nM (inactive).
Regarding `O=C(Oc1cc2oc(=O)c3c(c2cc1Cl)CCCC3)c1cccs1`, the EC50 was 653 nM.
As for `COc1ccc(-n2c(=O)c3c4c(sc3n3c(=S)[nH]nc23)CCCC4)cc1`, the EC50 is 744 nM.
Take `CCOC(=O)c1sc(N2C(=O)C(O)=C(C(=O)c3ccco3)C2c2cccc(Cl)c2)nc1C` (configuration not stated): the EC50 is 597 nM.
With `O=C(COc1ccc2c(c1)CCC2)N1CCN(c2cccc(C(F)(F)F)c2)CC1`, the EC50 was > 16000 nM (inactive).
As to `Cc1onc(C(=O)Nc2sc3c(c2C#N)CCCC3)c1[N+](=O)[O-]`, the EC50 is 989 nM.
The same measure for `CCCNC(=O)c1ccc2c(=O)c(O)c(-c3ccc(Cl)c([N+](=O)[O-])c3)[nH]c2c1`: 1920 nM; for `CCOc1ccc(NC(=S)NNC(=O)c2ccc(Br)cc2)cc1`: 1560 nM.
In the case of `O=c1cc2oc3cc(O)c(O)cc3c(-c3ccccc3[N+](=O)[O-])c-2cc1O`, the EC50 was 1520 nM.
Consider `C=C(C)CNC(=S)N/N=C1\CCCCc2ccccc21`, for which the EC50 was > 16000 nM (inactive).
`C(=N\NC1=Nc2cccc3cccc1c23)/c1ccccn1`: the EC50 was > 16000 nM (inactive).
